Data on 64 molecules can be found in PubChem BioAssay AID2823 (Broad Institute, 2010).

SMILES strings stand for the structures. Activity calls are given as the source filed them. No rule for the calls is given here.

The assay has as its target RanGTP-importin-beta complex (human Ran / KPNB1). Briefly: disruptors of RanGTP/KPNB1 binding – biochemical, FRET, CFP/YFP, cell-free homogeneous, confirmation (AID 2823). Particulars: CFP-Ran/YFP-importin-beta FRET ratio.
On to `CCc1ccc(C2C(C#N)=C(N)SC(N)=C2C#N)cc1`, for which the IC50 is > 50 µM (inactive).
With `COc1cccc(C(=O)c2cc3ccc(O)cc3oc2=O)c1` the figure was 26.9 µM.
With `Cc1c(CC(=O)N2CCN(C(=O)C3COc4ccccc4O3)CC2)c(=O)oc2c(C)c(O)ccc12` (centres undefined) the figure was 20.8 µM; with `CCc1ccc(CNc2ccc3c(c2)ncn3C(C)(C)C)cc1`, > 50 µM (inactive).
`COc1ccc2cc(C(=O)N/N=C/c3sc4ccccc4c3O)ccc2c1`: the IC50 is > 50 µM (inactive).
With `COc1cc2c(cc1OC)CN(Cc1cc(=O)oc3c(C)c(C)ccc13)CC2`, the IC50 was > 50 µM (inactive).
Consider `CC1CC(=O)N(CC(=O)Nc2cccc(Cl)c2)c2ccccc2S1(=O)=O` (centres undefined), for which the IC50 was > 50 µM (inactive).
In the case of `COc1ccc(CNc2ccc3c(c2)ncn3-c2ccccc2OC)cc1` it was > 50 µM (inactive); in that of `O=C(Cn1nnc2ccccc21)N/N=C\c1cccs1`, > 50 µM (inactive); in that of `CCCc1n(CC(O)COCc2ccccc2)c2ccccc2[n+]1C` (centres undefined), > 50 µM (inactive).
In the case of `CS(=O)(=O)N(CC(=O)NCCSCc1ccco1)c1ccc(Cl)cc1` it was > 50 µM (inactive); in that of `COc1ccc(CCn2c(C)nc3ccccc3c2=O)cc1OC`, > 50 µM (inactive); in that of `N#C/C(=C\c1ccc(N2CCOCC2)o1)C(=O)N1CCOCC1`, 4.66 µM.
As to `Cc1ccc2nc(/C(C#N)=C/c3ccc(O)c(O)c3)[nH]c2c1`, the IC50 was > 50 µM (inactive).
In the case of `COc1ccc(-c2nc3ccc(C(=O)NCCCN4CCOCC4)cc3nc2-c2ccc(OC)cc2)cc1` it was 46.4 µM.
Take `Cn1cnnc1SCC(=O)c1cc2ccccc2oc1=O`: the IC50 is > 50 µM (inactive).
In the case of `CN(C)Cc1c(O)ccc2c3c(c(=O)oc12)CCCCC3` it was 24.6 µM; in that of `Nc1c(C(=O)NCc2ccccc2)c2nc3ccccc3nc2n1-c1ccc2c(c1)OCO2`, 15.2 µM.
With `Cc1cccc(NC(=O)c2cc(S(=O)(=O)N(C)c3ccc(F)cc3)ccc2Cl)n1` the figure was > 50 µM (inactive).
Turning to `COc1ccc(OCC(=O)NNc2c3ccccc3nc3ccccc23)cc1`, the IC50 is > 50 µM (inactive).
In the case of `Cc1nc2ccccc2c2oc(C(=O)NCCCN3CCC(C)CC3)cc12` it was > 50 µM (inactive); in that of `CC(=O)O/N=C/c1c(Cl)n(C)c2ccccc12`, > 50 µM (inactive).
In the case of `Cn1c(SCc2cccc([N+](=O)[O-])c2)nc2c(c1=O)SCC2` it was > 50 µM (inactive).
In the case of `CCc1ccc(CNc2ccc3c(c2)ncn3CC)cc1` it was > 50 µM (inactive); in that of `COc1cccc(C(=O)/C=C/Nc2cc(C)ccc2O)c1`, > 50 µM (inactive).
For `C/C(=N\N)c1c(-c2ccccc2)c2cc(Br)ccc2[nH]c1=O`, the IC50 is > 50 µM (inactive).
With `Cc1cccc(N2C(=O)/C(=C/c3cccnc3)SC2=S)c1` the figure was > 50 µM (inactive); with `COc1ccc(Oc2nc3c(C)cccn3c(=O)c2/C=C(\C#N)C(N)=O)cc1`, 9.6 µM; with `CC1CN(Cc2cc(=O)oc3cc(O)ccc23)CC(C)O1` (centres undefined), 19 µM.
With `Cc1ccc(-n2c(=O)c(C#N)cc3c(=O)n4ccccc4nc32)cc1C` the figure was > 50 µM (inactive); with `Cc1ccc(S(=O)(=O)/C(C#N)=C/c2c(N3CCC(C(N)=O)CC3)nc3ccccn3c2=O)cc1`, > 50 µM (inactive).
In the case of `O=C(c1cccc(-c2ccccc2)c1)N1CC[C@@H](N2CCC(O)CC2)[C@H](O)C1` it was > 50 µM (inactive); in that of `Cc1cc(NC(=O)c2c(F)c(F)c(F)c(F)c2F)no1`, > 50 µM (inactive); in that of `Nc1c(C(=O)OC2CCCCC2)c2nc3ccccc3nc2n1CC1CCCO1` (centres undefined), 27.1 µM.
Take `CCOc1ccc(C(=O)c2cc3ccc(O)cc3oc2=O)cc1`: the 50% inhibitory concentration (IC50) is 9.4 µM.
In the case of `CCOc1ccc2nc(SCC(=O)NCc3ccc4c(c3)OCO4)[nH]c2c1` it was > 50 µM (inactive).
In the case of `CCN(CC)Cc1c(CC(C)C)oc(C)c1C(=O)O` it was > 50 µM (inactive).
With `CCN1CCN(Cc2ccc(NC(=O)c3ccc(C)c(/C=C/c4cnc(Nc5cc(N6CCNCC6)nc(C)n5)cn4)c3)cc2C(F)(F)F)CC1` the figure was 19.5 µM.
`CCN1CCc2c(sc(NC(=O)c3ccc(S(=O)(=O)N4CC(C)OC(C)C4)cc3)c2C(N)=O)C1` (centres undefined): the IC50 is > 50 µM (inactive).
In the case of `Cc1cc(C)c2c(n1)nn1c(NCCCN(C)C)cc(C)nc21` it was 22.3 µM.
With `CCOC(=O)/C(C#N)=C1/C=Nc2ccccc2N1` the figure was > 50 µM (inactive); with `CCOC(=O)c1c(NC(=O)CSc2nnc3c(n2)[nH]c2ccccc23)sc2c1CCN(C)C2`, > 50 µM (inactive); with `Cc1nn(C(=O)c2ccco2)c(C)c1CN1C(=O)c2ccccc2C1=O`, > 50 µM (inactive).
In the case of `Cc1cc(C)c2c(N)c(C(=O)NN3CC(=O)N(c4ccccc4F)CC3=O)sc2n1` it was > 50 µM (inactive); in that of `CNC(=S)Nc1ccc(C(N)=O)cc1`, > 50 µM (inactive).
For the molecule `Cc1ccc(C2C(C#N)=C(N)N(c3cccnc3)C3=C2C(=O)CCC3)c(C)c1` (centres undefined), the IC50 was > 50 µM (inactive).
In the case of `CCc1nnc(NC(=O)c2c(C)nn(-c3ccccc3)c2Cl)s1` it was > 50 µM (inactive).
In the case of `O=[N+]([O-])c1ccc(S(=O)(=O)Nc2nnc(C3CCCCC3)s2)cc1` it was > 50 µM (inactive).
In the case of `O=S(=O)(Nc1nc2ccccc2nc1-[n+]1cccc(N=C([O-])c2ccccc2Cl)c1)c1ccccc1` it was 6.27 µM; in that of `Cc1cccc(NS(=O)(=O)c2ccc(C(=O)N3CCCCCC3)cc2)c1C`, > 50 µM (inactive); in that of `COCCNC(=O)/C(C#N)=C/c1ccc(-c2ccc(S(=O)(=O)N3CCOCC3)cc2)o1`, > 50 µM (inactive).
Take `CCCCc1cc(=O)oc2c(C)c(OCC(=O)NCc3ccccn3)ccc12`: the IC50 is > 50 µM (inactive).
In the case of `COCCOC(=O)C1=C(C)OC(N)=C(C(=O)OC)C12C(=O)Nc1ccccc12` (centres undefined) it was > 50 µM (inactive); in that of `O=C(COC(=O)c1cccnc1Nc1ccccc1F)NCCN1C(=O)CSC1=O`, > 50 µM (inactive).
With `COCCNC(=O)c1c(NC(=O)c2ccco2)n(Cc2ccccc2)c2nc3ccccc3nc12`, the IC50 is 1.91 µM.
In the case of `N=c1oc2ccccc2cc1-c1nc(-c2ccc(Cl)cc2)cs1` it was 34.2 µM.
In the case of `COc1ccc(-c2ccc(-c3noc(-c4ccccc4C)n3)c(OC)n2)cc1` it was > 50 µM (inactive); in that of `COc1ccc(N2C(=O)c3ccccc3NC2c2cccnc2)cc1` (centres undefined), > 50 µM (inactive).
Regarding `CCc1ccc(C(=O)c2cc3ccc(O)cc3oc2=O)cc1`, the half-inhibitory concentration (IC50) was 11.7 µM.
In the case of `CN(C)/C=C/C(=O)/C=C/c1ccc(Cl)cc1` it was > 50 µM (inactive); in that of `Nc1nc(N2CCOCC2)nc(N(c2ccccc2)c2ccccc2)n1`, > 50 µM (inactive); in that of `CSc1nc(NCC(C)C)c2c3c(sc2n1)CN(C)CC3`, 44.2 µM.
As to `CCOC(=O)c1[nH]c(C)c(C(=O)N(C)Cc2ccccc2)c1C`, the IC50 was > 50 µM (inactive).
Regarding `CN(C)CCCN(C(=O)c1ccc(Br)s1)c1nc2cc3c(cc2s1)OCCO3`, the IC50 is > 50 µM (inactive).
